The results in this text go back to patent publication US12581252B2, “Substituted pyrrolo[3,4-b]pyridines as PI3K-α inhibitors” (Relay Therapeutics, Inc., priority 2020, dated 2026).

Bounds are passed on as bounds.

The target of this assay is H1047R PIK3CA enzyme (Homo sapiens, UniProt P42336, H1047R). Nature of the assay: ADP-Glo Biochemical PIK3CA Kinase Assay.
Chain of H1047R PIK3CA enzyme (P42336 whole entry H1047R): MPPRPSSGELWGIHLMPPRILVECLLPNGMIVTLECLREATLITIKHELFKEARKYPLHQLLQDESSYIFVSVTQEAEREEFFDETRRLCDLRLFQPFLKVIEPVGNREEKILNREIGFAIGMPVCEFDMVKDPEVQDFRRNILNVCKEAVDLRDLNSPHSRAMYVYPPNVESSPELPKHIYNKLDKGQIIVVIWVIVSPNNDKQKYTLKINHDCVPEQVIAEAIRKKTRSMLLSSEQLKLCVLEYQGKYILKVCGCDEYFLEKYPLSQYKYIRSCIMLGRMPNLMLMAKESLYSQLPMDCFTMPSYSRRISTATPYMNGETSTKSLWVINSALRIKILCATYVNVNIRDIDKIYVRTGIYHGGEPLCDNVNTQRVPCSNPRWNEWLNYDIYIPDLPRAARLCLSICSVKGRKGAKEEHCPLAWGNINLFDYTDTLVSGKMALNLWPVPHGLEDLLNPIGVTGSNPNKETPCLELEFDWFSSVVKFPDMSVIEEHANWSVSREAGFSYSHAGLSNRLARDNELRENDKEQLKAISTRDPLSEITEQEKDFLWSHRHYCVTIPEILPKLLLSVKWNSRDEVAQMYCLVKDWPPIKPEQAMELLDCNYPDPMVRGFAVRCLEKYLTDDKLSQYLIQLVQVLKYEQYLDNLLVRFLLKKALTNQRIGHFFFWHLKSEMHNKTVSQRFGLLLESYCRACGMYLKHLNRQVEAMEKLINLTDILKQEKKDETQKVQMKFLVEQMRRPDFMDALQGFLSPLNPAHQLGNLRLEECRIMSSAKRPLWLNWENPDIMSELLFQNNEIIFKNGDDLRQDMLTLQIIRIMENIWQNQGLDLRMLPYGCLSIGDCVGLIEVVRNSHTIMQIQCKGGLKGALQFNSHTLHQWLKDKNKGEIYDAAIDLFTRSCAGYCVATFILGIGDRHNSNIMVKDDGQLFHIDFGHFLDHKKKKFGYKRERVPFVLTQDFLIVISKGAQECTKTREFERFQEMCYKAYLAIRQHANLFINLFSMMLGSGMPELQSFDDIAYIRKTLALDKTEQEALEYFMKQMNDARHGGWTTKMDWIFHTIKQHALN
Chain of H1047R PIK3CA enzyme (P27986 whole entry partner): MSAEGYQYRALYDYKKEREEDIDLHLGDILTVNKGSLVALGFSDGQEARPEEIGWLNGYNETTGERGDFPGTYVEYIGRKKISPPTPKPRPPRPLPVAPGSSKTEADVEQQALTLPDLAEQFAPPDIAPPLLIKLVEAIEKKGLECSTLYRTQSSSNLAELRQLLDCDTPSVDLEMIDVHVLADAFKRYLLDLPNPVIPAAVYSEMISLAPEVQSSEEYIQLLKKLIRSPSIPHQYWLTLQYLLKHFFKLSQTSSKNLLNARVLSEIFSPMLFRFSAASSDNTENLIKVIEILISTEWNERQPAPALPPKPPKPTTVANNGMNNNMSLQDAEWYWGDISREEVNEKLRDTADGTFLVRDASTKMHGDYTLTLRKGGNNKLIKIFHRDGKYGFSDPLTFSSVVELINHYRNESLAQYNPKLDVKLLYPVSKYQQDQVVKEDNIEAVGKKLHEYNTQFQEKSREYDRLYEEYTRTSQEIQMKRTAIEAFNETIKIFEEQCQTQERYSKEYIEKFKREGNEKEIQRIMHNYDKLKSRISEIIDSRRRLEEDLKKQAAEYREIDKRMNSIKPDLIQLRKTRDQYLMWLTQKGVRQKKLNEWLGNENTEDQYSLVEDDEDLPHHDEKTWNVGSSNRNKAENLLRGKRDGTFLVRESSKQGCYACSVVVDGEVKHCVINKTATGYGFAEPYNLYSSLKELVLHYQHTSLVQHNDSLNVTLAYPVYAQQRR
Regarding `C[C@@H](CCC(F)(F)F)C(=O)Nc1cccc2c1[C@@H](c1cc(F)ccc1Cl)NC2=O` [Compound I-2141], the IC50 was 10 to 100 µM.
With `O=C1N[C@H](c2cc(F)ccc2Cl)c2c(NC(=O)[C@@H]3CCCCN3)cc(-c3ccc4ncnn4c3)cc21` [Compound I-2146], the IC50 was in the range of 10 to 100 µM.
To `O=C1N[C@@H](c2cc(F)ccc2Cl)c2c(NC(=O)[C@H]3CCCCN3)cc(-c3ccc4ncnn4c3)cc21` [Compound I-2147] belongs 10 to 100 µM; to `O=C(Nc1cc(-n2ccnn2)cc2c1C(c1cc(F)ccc1Cl)NC2=O)c1cc(F)cc(C(F)(F)F)c1` (stereo not drawn) [Compound I-2148], at most 0.1 µM; to `O=C(Nc1cccc2c1[C@H](CC1CCCC1)NC2=O)c1cc(F)cc(C(F)(F)F)c1` [Compound I-2153], 1 to 10 µM.
As to `O=C(Nc1cccc2c1[C@@H](CC1CCCC1)NC2=O)c1cc(F)cc(C(F)(F)F)c1` [Compound I-2154], the half-maximal inhibitory concentration (IC50) was in the range of 1 to 10 µM.
On to `O=C1NC(c2cc(F)ccc2Cl)c2c(NC(=O)C3CCC(O)(C(F)(F)F)CC3)cccc21` (stereo not drawn) [Compound I-2155], for which the half-inhibitory concentration (IC50) was 10 to 100 µM.
As for `O=C(Nc1cc(Br)cc2c1C(c1cc(F)cc(F)c1)NC2=O)c1cc(F)cc(F)c1` (stereo not drawn) [Compound I-2156], the IC50 fell in the range of 1 to 10 µM.
To `O=C1NC(c2cc(F)ccc2Cl)c2c(NC3CCCNC3)cc(-c3ccc4ncnn4c3)cc21` (stereo not drawn) [Compound I-2158, 6-([1,2,4]triazolo[1,5-a]pyridin-6-yl)-3-(2-chloro-5-fluorophenyl)-4-(piperidin-3-ylamino)isoindolin-1-one] belongs 10 to 100 µM.
In the case of `O=C(Nc1cc(-c2cnn(C(F)F)c2)cc2c1C(c1cc(F)cc(F)c1)NC2=O)c1cc(F)cc(F)c1` (stereo not drawn) [Compound I-2161] it was 0.1 to 0.5 µM; in that of `O=C1N[C@@H](c2cc(F)ccc2Cl)c2c(NC(=O)N3C[C@](O)(CO)c4ccccc43)cccc21` [Compound I-2166], 1 to 10 µM; in that of `O=C1N[C@H](c2cc(F)ccc2Cl)c2c(NC(=O)N3C[C@@](O)(CO)c4ccccc43)cccc21` [Compound I-2167], 10 to 100 µM.
In the case of `O=C1N[C@H](c2cc(F)ccc2Cl)c2c(NC(=O)N3C[C@](O)(CO)c4ccccc43)cccc21` [Compound I-2168] it was 10 to 100 µM; in that of `O=C1NC(c2cc(F)ccc2Cl)c2c(NC(=O)N3CC(CO)C(C(F)(F)F)C3)cccc21` (stereo not drawn) [Compound I-2181], 10 to 100 µM; in that of `O=C1NC(c2cc(F)ccc2Cl)c2c(NC(=O)N3CCc4ccncc43)cccc21` (stereo not drawn) [Compound I-2182], 10 to 100 µM.
The molecule `O=C1N[C@@H](c2cc(F)ccc2Cl)c2c(Nc3cn[nH]c3)cc(Br)cc21` [Compound I-2184] had an IC50 of 10 to 100 µM.
To `O=C1NC(c2cc(F)ccc2Cl)c2c(C#Cc3cc(F)cc(C(F)(F)F)c3)cccc21` (stereo not drawn) [Compound I-2187] belongs 10 to 100 µM; to `O=C(Nc1ccccc1)c1cccc2c1C(c1cc(F)ccc1Cl)NC2=O` (stereo not drawn) [Compound I-2188], 10 to 100 µM.
In turn, `O=C(Nc1cccc(C(F)(F)F)c1)c1cccc2c1C(c1cc(F)ccc1Cl)NC2=O` (stereo not drawn) [Compound I-2189] registered an IC50 of 1 to 10 µM.
In the case of `O=C1NC(c2cc(F)ccc2Cl)c2c(NC(=O)N3CCc4cnccc43)cccc21` (stereo not drawn) [Compound I-2191] it was 1 to 10 µM.
In the case of `CCC(CC(=O)Nc1cccc2c1C(c1cc(F)ccc1Cl)NC2=O)C(C)C(F)(F)F` (stereo not drawn) [Compound I-2193] it was 1 to 10 µM; in that of `O=C1NC(c2cc(F)ccc2Cl)c2c(NC(=O)c3[nH]nnc3CC(F)(F)F)cccc21` (stereo not drawn) [Compound I-2194], 10 to 100 µM; in that of `CC(C)(C)CCC1NC(=O)c2cccc(NC(=O)c3cc(F)cc(C(F)(F)F)c3)c21` (stereo not drawn) [Compound I-2196], 1 to 10 µM.
To `CC(O)C(CC(=O)Nc1cccc2c1C(c1cc(F)ccc1Cl)NC2=O)C(C)C(F)(F)F` (stereo not drawn) [Compound I-2198] belongs 10 to 100 µM; to `CN1CCO/C1=N\c1cc(NC(=O)c2cc(F)cc(C(F)(F)F)c2)c2c(c1)C(=O)NC2c1cc(F)ccc1Cl` (stereo not drawn) [Compound I-2202], 0.1 to 0.5 µM.
`O=C1NC(c2cc(F)ccc2Cl)c2c(NC(=O)C34CC(CO)(C3)C4)cccc21` (stereo not drawn) [Compound I-2219] showed a concentration for half-maximal inhibition (IC50) of 10 to 100 µM.
In the case of `O=C1NC(c2cc(F)ccc2Cl)c2c(NC(=O)N3CCNC(C(F)(F)F)C3)cccc21` (stereo not drawn) [Compound I-2222] it was 10 to 100 µM.
To `O=C1NC(c2cc(F)ccc2Cl)c2c(NC(=O)c3noc4c3COCC4)cccc21` (stereo not drawn) [Compound I-2232] belongs 10 to 100 µM; to `CC1(C)CCc2scc(C(=O)Nc3cccc4c3C(c3cc(F)ccc3Cl)NC4=O)c2C1` (stereo not drawn) [Compound I-2235], 1 to 10 µM.
In turn, `O=C1NC(c2cc(F)ccc2Cl)c2c(NC(=O)c3noc4c3CCCC4)cccc21` (stereo not drawn) [Compound I-2238] displayed an IC50 of 1 to 10 µM.
In the case of `N#CCCN(C(=O)c1cc(F)cc(C(F)(F)F)c1)c1cc(O)cc2c1C(c1cc(F)ccc1Cl)NC2=O` (stereo not drawn) [Compound I-2251] it was 10 to 100 µM; in that of `O=C(Nc1cccc2c1C(c1cc(F)ccc1Cl)NC2=O)c1coc2c1COC2` (stereo not drawn) [Compound I-2265], 10 to 100 µM; in that of `O=C(Nc1cccc2c1C(c1cc(F)ccc1Cl)NC2=O)c1csc2c1CCOC2` (stereo not drawn) [Compound I-2266], 0.1 to 0.5 µM.
In the case of `O=C(Nc1cc(-c2cn3ncnc3cn2)cc2c1C(c1cc(F)ccc1Cl)NC2=O)c1cc(F)cc(Cl)c1` (stereo not drawn) [Compound I-2267] it was 1 to 10 µM.
In the case of `O=C1NC(c2cc(F)ccc2Cl)c2c(NC(=O)N3CCSc4ccccc43)cccc21` (stereo not drawn) [Compound I-2284] it was 10 to 100 µM; in that of `O=C1NC(c2cc(F)ccc2Cl)c2c(NC(=O)C34CCC(C(O)C(F)(F)F)(CC3)C4)cccc21` (stereo not drawn) [Compound I-2285], 10 to 100 µM.
Regarding `CC(C#N)c1cc(NC(=O)c2cc(F)cc(C(F)(F)F)c2)c2c(c1)C(=O)N[C@@H]2c1cc(F)ccc1Cl` (stereo partly drawn) [Compound I-2289], the IC50 lay in the range of 1 to 10 µM.
In the case of `O=C1NC(c2cc(F)ccc2Cl)c2c(OCc3cc(F)cc(C(F)(F)F)c3)cccc21` (stereo not drawn) [Compound I-2295] it was 10 to 100 µM.
In the case of `O=C1NC(CO)(c2cccc(F)c2)c2c1cccc2-c1nc2cc(C(F)(F)F)cc(F)c2[nH]1` (stereo not drawn) [Compound I-2296] it was 1 to 10 µM; in that of `CN1CCN=C1Nc1cc(NC(=O)c2cc(F)cc(C(F)(F)F)c2)c2c(c1)C(=O)NC2c1cc(F)ccc1Cl` (stereo not drawn) [Compound I-2298], 0.1 to 0.5 µM; in that of `O=C1NC(c2cc(F)ccc2Cl)c2c(NC(=O)c3csc4cocc34)cccc21` (stereo not drawn) [Compound I-2301], 10 to 100 µM.
`O=C1NC(c2cc(F)ccc2Cl)c2c(NC(=O)C3COC4CCCCC43)cccc21` (stereo not drawn) [Compound I-2302]: the IC50 lay in the range of 10 to 100 µM.
Take `O=C1NC(c2cc(F)ccc2Cl)c2c(NC(=O)C34CC5CC(CC(C5)O3)C4)cccc21` (stereo not drawn) [Compound I-2303]: the concentration for half-maximal inhibition (IC50) was 10 to 100 µM.
Turning to `O=C(Nc1cccc2c1C(c1cc(F)ccc1Cl)NC2=O)c1csc2c1CCNC2` (stereo not drawn) [Compound I-2304], the IC50 was in the range of 10 to 100 µM.
As for `O=C1NC(c2cc(F)ccc2Cl)c2c(NC(=O)N3CCCc4ccccc4C3)cccc21` (stereo not drawn) [Compound I-2305], the IC50 lay within 10 to 100 µM.
To `O=C1NC(c2cc(F)ccc2Cl)c2c(NC(=O)N3CCCCc4ccccc43)cccc21` (stereo not drawn) [Compound I-2306] belongs 10 to 100 µM; to `O=C1NC(c2cc(F)ccc2Cl)c2c(NC(=O)N3CCc4ccccc4C3)cccc21` (stereo not drawn) [Compound I-2307], 10 to 100 µM; to `O=C1NC(c2cc(F)ccc2Cl)c2c(NC(=O)N3CCc4ccccc4CC3)cccc21` (stereo not drawn) [Compound I-2308], 10 to 100 µM.
`NC(=O)CCN(C(=O)c1cc(F)cc(C(F)(F)F)c1)c1cc(O)cc2c1C(c1cc(F)ccc1Cl)NC2=O` (stereo not drawn) [Compound I-2309] displayed an IC50 of 10 to 100 µM.
Consider `O=C1NC(c2cc(F)ccc2Cl)c2c(NC(=O)n3nc(O)c4ccccc43)cccc21` (stereo not drawn) [Compound I-2315], for which the IC50 lay in the range of 1 to 10 µM.
To `O=C(Nc1ccc(C(F)(F)F)cc1)c1cccc2c1C(c1cc(F)ccc1Cl)NC2=O` (stereo not drawn) [Compound I-2316] belongs 10 to 100 µM; to `COC(=O)C1CN(C(=O)Nc2cccc3c2C(c2cc(F)ccc2Cl)NC3=O)c2ccccc21` (stereo not drawn) [Compound I-2317], 10 to 100 µM.
In the case of `Nc1cc(NC(=O)c2cc(F)cc(C(F)(F)F)c2)c2c(c1)C(=O)NC2c1cccc(F)c1` (stereo not drawn) [Compound I-2320] it was 0.5 to 1 µM; in that of `O=C1NC(c2cc(F)ccc2Cl)c2c(NC(=O)N3CCC3c3ccccc3)cccc21` (stereo not drawn) [Compound I-2321], 10 to 100 µM.
Molecule `O=C(Nc1cccc2c1C(CC1CC=CC1)NC2=O)c1cc(F)cc(C(F)(F)F)c1` (stereo not drawn) [Compound I-2322] came in with a half-inhibitory concentration (IC50) of 10 to 100 µM.
To `O=C(Nc1cc(NC2=NCC3(CC3)O2)cc2c1C(c1cc(F)ccc1Cl)NC2=O)c1cc(F)cc(C(F)(F)F)c1` (stereo not drawn) [Compound I-2327] belongs 0.1 to 0.5 µM.
For the molecule `O=C(Nc1cccc2c1C(c1nc(C(F)(F)F)cs1)NC2=O)c1cc(F)cc(C(F)(F)F)c1` (stereo not drawn) [Compound I-2330], the IC50 lay within 10 to 100 µM.
In the case of `O=C1NC(c2cc(F)ccc2Cl)c2c(NC(=O)N3CC(C(F)(F)F)Nc4ccccc43)cccc21` (stereo not drawn) [Compound I-2339] it was 10 to 100 µM; in that of `O=C1NC(c2cc(F)ccc2Cl)c2c(NC(=O)N3CCSC(C(F)(F)F)C3)cccc21` (stereo not drawn) [Compound I-2340], 10 to 100 µM.
The molecule `O=C(Nc1cc(/N=C2\OC[C@H]3CCCN23)cc2c1C(c1cc(F)ccc1Cl)NC2=O)c1cc(F)cc(C(F)(F)F)c1` (stereo partly drawn) [Compound I-2354] had a 50% inhibitory concentration (IC50) of 0.1 to 0.5 µM.
In the case of `O=C(Nc1cc(/N=C2\OC[C@@H]3CCCN23)cc2c1C(c1cc(F)ccc1Cl)NC2=O)c1cc(F)cc(C(F)(F)F)c1` (stereo partly drawn) [Compound I-2355] it was 0.1 to 0.5 µM.
As to `CC1(C)COC(Nc2cc(NC(=O)c3cc(F)cc(C(F)(F)F)c3)c3c(c2)C(=O)NC3c2cc(F)ccc2Cl)=N1` (stereo not drawn) [Compound I-2358], the IC50 was 0.1 to 0.5 µM.
In the case of `O=C(Nc1cccc2c1C(c1cc(F)ccc1Cl)NC2=O)c1cscc1C(F)(F)F` (stereo not drawn) [Compound I-2361] it was 1 to 10 µM; in that of `O=C(CCc1ccccc1)Nc1cccc2c1C(c1cc(F)ccc1Cl)NC2=O` (stereo not drawn) [Compound I-2362], 10 to 100 µM.
In turn, `O=C(Nc1cccc2c1C(c1cc(F)ccc1Cl)NC2=O)c1ccc(O)c(C(F)(F)F)c1` (stereo not drawn) [Compound I-2363] registered an IC50 of 10 to 100 µM.
In the case of `O=C(/C=C/c1ccccc1)Nc1cccc2c1C(c1cc(F)ccc1Cl)NC2=O` (stereo not drawn) [Compound I-2372] it was 10 to 100 µM.
